From article PMC6321439, “Structural Elucidation and Cytotoxicity of a New 17-Membered Ring Lactone from Algerian Eryngium campestre” (Molecules, 2018)
Values after ≈ are worked out from the molar mass of the structure shown. Read-outs that look alike come from different tables or passages of the source.

Tests used:
[1] = test system: Leishmania mexicana mexicana promastigotes; assay: Antileishmanial activity in vitro; assay type: cell-based; conditions: for IC50: Leishmania mexicana
Experimental: (§1) The crude extract and the newly identified pure compound (91.9%), campestrolide, were evaluated in vitro for their cytotoxicity on two mammalian cell lines: normal human fibroblasts (WI38) and cancerous macrophage-like murine cells. Their antiprotozoal activities were also investigated on Trypanosoma brucei brucei (Tbb. strain 427) bloodstream forms and Leishmania mexicana mexicana (Lmm. MHOM/BZ/84/BEL46) promastigotes. The tests were performed using stock solutions prepared in DMSO at 10 mg/mL. For the cytotoxicity assay, the samples were tested in eight serial 1.7-fold dilutions (150 µL transferred into 100 µL fresh medium) in the 96-well microtiter plates (concentration range: 0.7–25 µg/mL). The camptothecin (Sigma-Aldrich, St.-Louis, MO, USA) was used as a positive control with 5-fold dilutions (concentration range: 0.00032–25 µg/mL) from a 10 mg/mL DMSO stock solution. For the antiparasitic assays, the samples were tested in eight serial 2-fold dilutions (concentration range: 0.20–25 or 0.10–12 µg/mL on Leishmania and Trypanosoma, respectively). Suramine sodium and pentamidine isethionate salts (Sigma-Aldrich, St.-Louis, MO, USA) were used as a positive control with 3-fold dilutions (0.0046–10 µg/mL) from a stock solution of 2 mg/mL as well as amphotericin B. A maximum of 0.5% DMSO was previously verified to be non-toxic in all the biological assays. The IC50 values were determined using Microsoft Excel and GraphPad Prism 7.0 software (GraphPad, San Diego, CA, USA), based on a nonlinear regression. The selectivity index was calculated in comparison to the WI38 cytotoxicity to assess the therapeutic properties as antiparasitic or anticancer hits.

[2] = Cytotoxicity on WI38 cells; assay type: cell-based; conditions: human, WI38 normal human fibroblasts, mean ± SD from at least six values
Experimental: as §1

[3] = Cytotoxicity / anticancer activity on J774 cells; assay type: cell-based; conditions: mouse, J774 cancerous macrophage-like murine cells, mean ± SD from at least six values
Experimental: as §1

all tested cells = assay: Summary over cytotoxicity and antiprotozoal assays; assay type: cell-based; conditions: read-out: IC50 on all tested cells except Trypanosoma
Experimental: as §1, with “Suramine sodium and pentamidine isethionate salts (Sigma-Aldrich, St.-Louis, MO, USA) were used as a positive control with 3-fold dilutions (0.0046–10 µg/mL) from a stock solution of 2 mg/mL as well as amphotericin B. A maximum of 0.5% DMSO was previously verified to be non-toxic in all the biological assays.” left out

[4] = test system: Trypanosoma brucei brucei (bloodstream forms); assay: Antitrypanosomal activity in vitro; assay type: cell-based
Experimental: as §1

T. cruzi trypomastigotes = test system: T. cruzi trypomastigotes; design: method as in PMID 22414103; conditions: at 100 µg/mL; cited from earlier work
cruzain = test system: cruzain; design: method as in PMID 22414103; conditions: cited from earlier work
[5] = test system: Trypanosoma brucei rhodesiense, T. cruzi, Plasmodium falciparum and Leishmania donovani axenic and the infected macrophages amastigotes; design: method as in PMID 17922552; conditions: cited from earlier work; for IC50: T. b. rhodesiense, T. cruzi, P. falciparum, L. donovani axenic and infected-macrophage amastigotes, read-out: IC50 on protozoan panel
[6] = test system: Trypanosoma brucei brucei; design: method as in PMID 22473703; conditions: cited from earlier work
[7] = design: method as in earlier work; conditions: cited from earlier work
[8] = read-out: Cytotoxicity IC50 ± SD WI38
[9] = read-out: Cytotoxicity IC50 ± SD WI38 (µM for pure compound)
[10] = read-out: Cytotoxicity IC50 ± SD J774
[11] = read-out: Cytotoxicity IC50 ± SD J774 (µM for pure compound)
[12] = Lmm promastigotes, read-out: Antiparasitic activity IC50 ± SD Lmm
[13] = Lmm promastigotes, read-out: Antiparasitic activity IC50 ± SD Lmm (µM for pure compound)
[14] = Trypanosoma brucei, Tbb bloodstream forms, strain 427, read-out: Antiparasitic activity IC50 ± SD Tbb
[15] = Trypanosoma brucei, Tbb bloodstream forms, strain 427, read-out: Antiparasitic activity IC50 ± SD Tbb (µM for pure compound)

## C[C@@H]1[C@H](O)[C@@H](C)/C=C/C=C/C=C/C=C/C=C/C=C/C=C/[C@H](O[C@@H]2O[C@H](C)[C@@H](O)[C@H](N)[C@@H]2O)C[C@@H]2O[C@](O)(C[C@@H](O)C[C@@H](O)[C@H](O)CC[C@@H](O)C[C@@H](O)CC(=O)O[C@H]1C)C[C@H](O)[C@H]2C(=O)O [amphotericin B, reference compound]
[1]; read-out: Antiparasitic activity IC50 ± SD Lmm (µM for pure compound)
  IC50: 0.09 ± 0.06 µM

## CC[C@@]1(O)C(=O)OCc2c1cc1n(c2=O)Cc2cc3ccccc3nc2-1 [camptothecin, reference compound]
[2]; [8]
  IC50: 0.036 ± 0.022 µg/mL
[2]; [9]
  IC50: 0.103 µM
[3]; [10]
  IC50: 0.007 ± 0.005 µg/mL
[3]; [11]
  IC50: 0.021 µM

## C=C[C@@H]1C#CC#CC/C=C\CCCCCCCC(=O)O1 [Compound 33, (Z)-17(R)-vinyloxacycloheptadeca-10-en-13,15-diyn-2-one]
[2]; [8]
  IC50: 5.2 ± 0.24 µg/mL
[2]; [9]
  IC50: 19.2 µM
[3]; [10]
  IC50: 4.84 ± 0.1 µg/mL
[3]; [11]
  IC50: 17.9 µM
All tested cells
  IC50: 12500 to 19500 nM
[1]; [12]
  IC50: 3.43 ± 0.02 µg/mL
[1]; [13]
  IC50: 12.7 µM
[1]; compared to WI38 cytotoxicity
  Selectivity Index IC50 WI38/IC50 Parasite, Lmm: 1.5
[4]; Tbb bloodstream forms, strain 427
  Antiparasitic activity IC50 ± SD Tbb: 0.59 ± 0.08 µg/mL
[4]; Tbb bloodstream forms, strain 427, read-out: Antiparasitic activity IC50 ± SD Tbb (µM for pure compound)
  IC50: 2.17 µM
[4]; [14]
  IC50: 0.6 µg/mL
[4]; [15]
  IC50: 2.2 µM
[4]; compared to WI38 cytotoxicity
  Selectivity Index IC50 WI38/IC50 Parasite, Tbb: 8.9

## Cc1ccc(C(=O)Nc2ccc(S(=O)(=O)O)c3cc(S(=O)(=O)O)cc(S(=O)(=O)O)c23)cc1NC(=O)c1cccc(NC(=O)Nc2cccc(C(=O)Nc3cc(C(=O)Nc4ccc(S(=O)(=O)O)c5cc(S(=O)(=O)O)cc(S(=O)(=O)O)c45)ccc3C)c2)c1 [suramine, reference compound]
[4]; [14]
  IC50: 0.031 ± 0.012 µg/mL
[4]; [15]
  IC50: 0.022 µM

## C=C1/C=C/[C@H](C(C)C)CC/C(C)=C/CC1 [germacrene D, Germacrene D]
T. cruzi trypomastigotes
  growth inhibition of T. cruzi trypomastigotes: 61%
cruzain
  IC50 cruzain: 22.1 µg/mL (≈ 108 µM)

## C=CC(C#CC#CC(O)CCCCCCCCCCOC(C)=O)OC(C)=O (centres unmarked) [16-acetoxy-11-hydroxyoctadeca-17-ene-12,14-diynyl ethanoate]
[5]
  IC50: 100 to 2500 nM
  SI compared on L6 rat skeletal myoblasts: > 10

## C=CC(C#CC#CC(O)CCCCCCCCC)OC(C)=O (centres unmarked) [8-hydroxyheptadeca-1-ene-4,6-diyn-3-yl ethanoate]
[5]
  IC50: 100 to 2500 nM
  SI compared on L6 rat skeletal myoblasts: > 10

## C=C[C@H](O)C#CC#CC/C=C\CCCCCCC [Falcarinol]
[6]; T. b. brucei compared to HeLa
  SI compared to HeLa cytotoxicity: 858
[6]
  IC50: 40 nM
  IC50 on Trypanosoma brucei brucei: 0.01 µg/mL (≈ 0.0409 µM)
[7]
  reported log P: 5.50

## N=C(N)c1ccc(OCCCCCOc2ccc(C(=N)N)cc2)cc1 [pentamidine, reference compound]
[1]; [12]
  IC50: 0.057 ± 0.008 µg/mL
[1]; [13]
  IC50: 0.097 µM
